From patent US8283353B2, “Fused ring compound and use thereof” (Takeda Pharmaceutical Company Limited, priority 2009, dated 2012)

Molecular target: T1, human AT1 receptor (Homo sapiens, UniProt P30556)
T1 construct: expressed in transfected cells; membrane fraction
T1 sequence (P30556 1-359): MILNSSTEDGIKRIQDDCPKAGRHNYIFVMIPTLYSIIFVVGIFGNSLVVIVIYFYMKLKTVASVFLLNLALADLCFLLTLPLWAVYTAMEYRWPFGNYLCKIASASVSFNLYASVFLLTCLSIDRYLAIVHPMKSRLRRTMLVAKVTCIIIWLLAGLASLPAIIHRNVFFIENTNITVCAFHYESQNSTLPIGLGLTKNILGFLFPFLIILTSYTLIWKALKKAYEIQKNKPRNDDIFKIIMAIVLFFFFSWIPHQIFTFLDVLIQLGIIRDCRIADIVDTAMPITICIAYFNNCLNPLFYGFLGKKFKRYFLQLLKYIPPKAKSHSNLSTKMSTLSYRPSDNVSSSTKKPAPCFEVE
Experiment: AT1 receptor antagonistic activity: [125I]-angiotensin II binding assay on human AT1 receptor-expressing CHO-K1 cellular membrane fraction
Settings: 22.5 pM [125I]-angiotensin II, 1 hr room temperature
Experimental: CHO-K1 cell (RIKEN, Japan) capable of stable expression of human AT1 receptor was cultured, recovered, suspended in homogenize buffer (10 mM NaHCO3 (pH 7.4), 5 mM EDTA, 1× Complete EDTA free) [manufactured by Roche, Switzerland], and homogenized. The homogenate was centrifuged at low-speed (900×g, 10 min, 4° C.), and the supernatant was recovered and ultracentrifuged (90,000×g, 1 hr, 4° C.). The supernatant was discarded, and the pellets were resuspended in suspension buffer (50 mM Tris (pH 7.4), 1 mM EDTA, 1× Complete EDTA free).
(9 μg) in the presence of AT1 membrane and test compound in 100 μl, (total reaction volume) of reaction buffer (50 mM Tris (pH 7.4), 10 mM MgCl2 supplemented or not supplemented with 0.3 mg/mL fatty acid-free bovine serum albumin [manufactured by Wako Pure Chemical Industries, Ltd., Japan]). The reaction mixture was incubated in 96 well polypropylene plate for 1 hr at room temperature, and the reaction was quenched by rapid filtration (96 well cell harvester) through a GF/C filter treated with wash buffer (50 mM Tris (pH 7.4)). Subsequently, the filter was washed 5 times with 0.3 mL of ice-cooled wash buffer. […] Total binding was measured in the presence of 1% DMSO and nonspecific binding was measured in the presence of […] Candesartan.

In the case of `CCCCc1c(Cc2ccc(-c3ccccc3-c3noc(=O)[nH]3)cc2)c(=O)n(C2CCOC(C)C2)c2ncnn12` (stereo not shown) [Example 161, 7-butyl-4-(2-methyltetrahydro-2H-pyran-4-yl)-6-{[2′-(5-oxo-4,5-dihydro-1,2,4-oxadiazol-3-yl)biphenyl-4-yl]methyl}[1,2,4]triazolo[1,5-a]pyrimidin-5(4H)-one], the IC50 is reported as 1.2 nM.
